Consider one compound from paper PMC12455996, “TGF-β inhibitor SB431542 suppresses SARS-CoV-2 replication through multistep inhibition” (Journal of Virology, 2025).

The structures appear in SMILES notation.

In the test the target is T1, SARS-CoV-2 ORF3a (Severe acute respiratory syndrome coronavirus 2, UniProt P0DTC3).
T1 construct: gene 3a
Nature of the test: isothermal titration calorimetry. It counts as binding.

T1 sequence (P0DTC3 whole entry): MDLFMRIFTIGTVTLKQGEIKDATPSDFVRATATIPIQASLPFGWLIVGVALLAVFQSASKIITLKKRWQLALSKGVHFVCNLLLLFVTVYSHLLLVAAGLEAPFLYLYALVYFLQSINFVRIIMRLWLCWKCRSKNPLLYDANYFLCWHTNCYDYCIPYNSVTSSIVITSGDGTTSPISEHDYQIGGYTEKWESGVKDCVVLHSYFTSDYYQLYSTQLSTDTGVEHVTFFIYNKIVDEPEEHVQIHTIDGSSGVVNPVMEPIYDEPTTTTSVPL

Consider `NC(=O)c1ccc(-c2nc(-c3ccc4c(c3)OCO4)c(-c3ccccn3)[nH]2)cc1` [SB431542], for which the dissociation constant Kd is 220 ± 68.1 nM.
